Test results as given in patent US20260224555A1, “NEW PHENYLQUINOLONE COMPOUND HAVING ANTIBACTERIAL AND ANTI-CANCER FUNCTIONS AND PREPARATION THEREOF” (AlphaMol Science Ltd (Shanghai), priority 2022, published 2026).
pIC50: −log10 of the molar value. Converted amounts (≈) assume the structure as drawn. Read-outs that look alike come from different tables or passages of the source.

Columns and labels:
E. coli ATCC 25922 = assay: In vitro antibacterial activity assay (MIC, broth dilution); type: cell-based; settings: Escherichia coli, ATCC25922
Text: (§1) The method used to indicate the activity of the compounds in this example is to record the minimum inhibitory concentration (MIC) of the compounds against bacteria. The specific experimental method is as follows:
(§2) 1. The bacterial liquid cultured from a single colony was taken, and diluted into autoclaved CAMHB broth in a ratio of 1:1000, and mixed well.
(§3) 2. The prepared drug solution was filtered through a sterile 0.22 µm syringe filter and placed in a sterile EP tube for later use.
(§4) 3. A 96-well plate was taken, and 20 µL of drug solution ([…]) was added to each well in the first column of the 96-well plate. Then, 180 µL of diluted bacterial liquid was added and mixed well (Perform 3 replicate rows for each drug).
(§5) The same process was performed for the hydrochloride drug.
(§6) 4. 100 μL of diluted bacterial liquid was added to each well in the remaining 11 columns of the 96-well plate. Drugs are the same as above.
(§7) 5. Serial dilution: 100 μL of liquid was taken from the first column to the second column, mixed well, then 100 μL of liquid was taken from the second column to the third column, mixed well, and so on, sequentially diluting down to the last column (column 12). After mixing column 12 well, 100 μL of liquid thereof was discarded. The drug concentration in each well was decreased by two-fold serially (the concentration in the first well is 40 μg/mL).
(§8) 6. Blank CAMHB broth without added bacteria liquid was added to 3 blank wells in the 96-well plate, as negative control.
(§9) 7. The diluted bacterial liquid was added to 3 blank wells in the 96-well plate, as positive control.
(§10) 8. Incubated at 37° C. for 16 hours.
(§11) 9. Results reading: the minimum inhibitory concentration is the minimum drug concentration at which no bacterial growth is visible to the naked eye and without turbidity.

S. aureus ATCC 43300 = assay: as above; type: cell-based; settings: Staphylococcus aureus
Text: as §1, §2, §3, §4, §5, §6, §7, §8, §9, §10, §11

[1] = system: Staphylococcus aureus ATCC43300; assay: Resistance test of bacteria against compounds (serial induction, 21 days); type: cell-based
Experimental: This example provides a resistance test of bacteria against compounds, and the specific experimental method is as follows.
1. […] It was ensured that among the 6 final concentrations of the drug diluted into the wells, some were higher than the original MIC of the bacteria and some were lower than the original MIC of the bacteria.
2. Preparation of bacterial liquid: 10 mL of culture medium was taken and added to a sterilized plate using a pipette, then 100 µL of the above-mentioned passaged bacterial liquid was added, and mixed well for later use.
3. The above-mentioned diluted bacterial liquid was taken and added to a 96-well plate using a pipette, 180 μL per well, 3 wells per group, 6 groups in total. 20 μL of drug solution was added to each well (note: it is necessary to replace the pipette tip each time the drug is added), so that the final drug concentrations were […], respectively. The well with 200 μL of diluted bacterial liquid was used as the positive control well, and the well with 200 μL of culture medium was used as the negative control well.
The test object was Staphylococcus aureus (S. aureus).

Hela = assay: In vitro anticancer activity test (MTT cell proliferation); type: cell-based; settings: Homo sapiens, average proliferation inhibition rate at the dosage of 40 μM, read-out: Hela Average inhibition rate %
Experimental: (§12) The anticancer activity of the compounds was tested using an in vitro cancer cell tests. The specific test method is as follows:
(§13) 1. Cell recovery and culture method: the cryovial was taken out from the liquid nitrogen container firstly, soaked directly in 37° C. warm water, and shaked from time to time to let it thaw as soon as possible. Then, the cryovial was transferred to a clean bench, and the lid was open. The cell suspension was taken into a centrifuge tube using a rubber-tipped dropper and more than 10 times the culture medium was added, mixed well, and centrifuged at 50 g for 5 minutes. Then, the supernatant was discarded, complete culture medium containing 10% fetal bovine serum was added to resuspend the cells, the cells was counted, the cell density was adjusted, and then inoculated into a culture bottle. The culture bottle was placed in a cell culture incubator at 5% CO2 and 37° C. The complete culture medium was replaced once the next day and the culture was continued.
(§14) 2. Cell passaging method: adherent cells in the logarithmic growth phase were placed in a clean bench, the original culture medium was discarded, and washed three times with 1×PBS. An appropriate amount of 0.25% trypsin digestion solution was added to moisten the cells, and then the trypsin solution was aspirated. The cells were placed in a cell culture incubator at 5% CO2 and 37° C. for digestion for a suitable time, and observed under a microscope. When 90% of the cells become round, the cells were moved immediately to the clean bench and complete culture medium was added to terminate digestion. Then, the cells were dislodged by pipetting up and down with a rubber-tipped dropper to single cells. The cells were counted, and the cell density was adjusted. The cells were inoculated into a suitable culture bottle or dish, added enough complete culture medium, and placed in a cell culture incubator at 5% CO2 and 37° C. for static culture.
(§15) For suspension cells in the logarithmic phase, the original culture medium was directly centrifuged at 50 g for 5 minutes, the supernatant was discarded, and the cells were washed once with PBS and centrifuged. After discarding the supernatant, the complete culture medium was added and the cells were dispersed using a rubber-tipped dropper. The cells are counted, and the cell density was adjusted. The cells were inoculated into appropriate culture bottles or culture dishes, and sufficient complete culture medium was added, and the cells were cultured in a cell culture incubator at 5% CO2 and 37° C.
(§16) 3. Cell proliferation assay: cells in good state in logarithmic phase were taken and appropriate amount of the cells was inoculated into 96-well plates according to the cell passage treatment method, with each well containing 180 μL complete medium. After the cells growth was recovered and the number of cells in each well is 5000±500, a drug was added for treatment.
(§17) After drug treatment during the experimental time, MTT solution with a final concentration of 0.5 mg/mL was added to each well, and placed in a cell culture incubator at 5% CO2 and 37° C. to allow a fully reaction of MTT with cells. After 4 hours, the solution in the 96-well plate was discarded, 100 µL of DMSO was added, and shaked to dissolve the formazan precipitated at the bottom of the plate, and the absorbance value of samples was detected at a wavelength of 570 nm using a microplate reader. Calculation method of cell viability rate:
Table 4 lists some compounds that have inhibitory effects against both of bacteria and cancer cells. In the table, the inhibitory effects against cancer cells are shown: the average proliferation inhibition rate (%) against cancer cells at the dosage of 40 μM.

[2] = system: Staphylococcus aureus ATCC43300; assay: Systemic blood infection animal model; type: in vivo, mice; settings: for number of colonies of liver and kidney: 3 times a day, 7 days
Experimental: (2) Sterile phosphate buffered saline (PBS) was used to prepare a 1×10^7 CFU/mL Staphylococcus aureus ATCC43300 bacterial suspension for later use; the drug dosage required for mice was calculated for each group, and solutions of Example 34 and solvent for gavage (400 or 200 μL of Tween 80 was mixed with Example 34, grinded with an agate mortar until it became transparent, and then 0.5% sodium carboxymethyl cellulose solution was added to reach the required concentration and volume of the test drug) were prepared for later use.
(3) Except for the blank group, 100 μL of the bacterial suspension prepared in step 2 was injected into the tail vein of each mouse.
(4) 2 hours after the challenge, the drugs prepared in step 2 were administered by oral gavage according to the groups, 3 times a day, 200 uL each time, with an interval of 8 hours, for a total of 7 days. Mice were administered by oral gavage with the drug solvent for the model group and the blank group.
(5) 8 h after the last administration, mice were euthanized by cervical dislocation, disinfected with 75% alcohol, and then necropsied under sterile conditions. The kidneys and livers were harvested, observed and photographed, and the weight was recorded.
(6) The kidneys and livers were placed in a sterile glass grinder and sterile PBS in a volume ten times the weight of the organs was added and grinded. The grinding solutions were taken out, 10-fold serially diluted, smeared to a TSA solid culture medium, and incubated at 37° C. for 16 hours, then the colonies were counted. The number of colonies of the organs was calculated to evaluate the therapeutic effect.

A. baumannii ATCC 17978 = assay: In vitro antibacterial activity assay (MIC, broth dilution); type: cell-based; settings: Acinetobacter baumannii, ATCC17978; Table 2; read-out: G- bacteria MIC A. baumannii ATCC 17978
Text: as §1, §2, §3, §4, §5, §6, §7, §8, §9, §10, §11

E. feacium ATCC 700221 = assay: as above; type: cell-based; settings: read-out: G+ bacteria MIC E. feacium ATCC 700221
Text: as §1, §2, §3, §4, §5, §6, §7, §8, §9, §10, §11

P. aeruginosa ATCC 27853 = assay: as above; type: cell-based; settings: Pseudomonas aeruginosa, ATCC27853; Table 2; read-out: G- bacteria MIC P. aeruginosa ATCC 27853
Text: as §1, §2, §3, §4, §5, §6, §7, §8, §9, §10, §11

[3] = system: human acute monocytic leukemia cell THP-1; assay: In vitro anticancer activity test (MTT cell proliferation); type: cell-based
Experimental: as §12, §13, §14, §15, §16
as §17, with “rate: […]” for “rate:”

[4] = system: human acute myeloid leukemia cell MOLM-13; assay: as above; type: cell-based
Experimental: as §12, §13, §14, §15, §16
as §17, with “rate: […]” for “rate:”

[5] = system: human liver cancer cell BLE-7402; assay: as above; type: cell-based
Experimental: as §12, §13, §14, §15, §16
as §17, with “rate: […]” for “rate:”

[6] = system: human renal cancer cell OS-RC-2; assay: as above; type: cell-based
Experimental: as §12, §13, §14, §15, §16
as §17, with “rate: […]” for “rate:”

[7] = system: human bladder transitional cell carcinoma cell T24; assay: as above; type: cell-based; settings: T-24
Experimental: as §12, §13, §14, §15

[8] = system: human epidermal carcinoma cell A431; assay: as above; type: cell-based; settings: A-431
Experimental: as §12, §13, §14, §15

[9] = system: human Burkitt's lymphoma cell Raji; assay: as above; type: cell-based
Experimental: as §12, §13, §14, §15, §16
as §17, with “rate: […]” for “rate:”

[10] = Table 2, read-out: G- bacteria MIC E. coli ATCC 25922
[11] = ATCC43300, Table 1, read-out: G+ bacteria MIC S. aureus ATCC 43300

O=C(O)c1cn(C2CC2)c2cc(N3CCNCC3)c(F)cc2c1=O [Ciprofloxacin, reference compound]
MIC (E. coli ATCC 25922; Table 4, read-out: E. coli ATCC 25922 MIC): ≤ 1 µg/mL
MIC (S. aureus ATCC 43300; ATCC43300, Table 4, read-out: S. aureus ATCC 43300 MIC): ≤ 1 µg/mL
resistance of bacteria in the subsequent culture ([1]; S. aureus ATCC43300, 21 days): increased rapidly
MIC at the end of the resistance experiment ([1]; period of 21 days, S. aureus ATCC43300): 128 µg/mL
inhibition at 40 µM (Hela): ≤ 10%
number of colonies of liver and kidney ([2]; 4 mg/kg oral gavage): not apparent

COc1c(-c2ccc(NC(=O)C(F)(F)F)c(C#N)c2)c(F)cc2c(=O)c(C(=O)O)cn(C3CC3)c12 [Example 8, 7-(3-cyano-4-(2,2,2-trifluoroacetamido)phenyl)-1-cyclopropyl-6-fluoro-8-methoxy-4-oxo-1,4-dihydroquinolin-3-carboxylic acid]
MIC (A. baumannii ATCC 17978): 0.1 to 1 µg/mL (≈ 0.204 to 2.04 µM)
MIC (E. coli ATCC 25922; [10]): ≤ 0.1 µg/mL
MIC (E. feacium ATCC 700221): 1 to 8 µg/mL (≈ 2.04 to 16.3 µM)
MIC (P. aeruginosa ATCC 27853): 0.1 to 1 µg/mL (≈ 0.204 to 2.04 µM)
MIC (S. aureus ATCC 43300; [11]): ≤ 0.1 µg/mL

O=C(O)c1cn(C2CC2)c2cc(-c3ccc(S(=O)(=O)NCCCl)cc3)c(F)cc2c1=O [Example 15, 7-(4-(N-(2-chloroethyl)sulfamoyl)phenyl)-1-cyclopropyl-6-fluoro-4-oxo-1,4-dihydroquinolin-3-carboxylic acid]
MIC (E. feacium ATCC 700221): > 8 µg/mL
MIC (S. aureus ATCC 43300; ATCC43300, read-out: G+ bacteria MIC S. aureus ATCC 43300): ≤ 0.1 µg/mL

O=C(O)c1cn(C2CC2)c2nc(-c3ccc(S(=O)(=O)NCCO)cc3)c(F)cc2c1=O [Example 18, 1-cyclopropyl-6-fluoro-7-(4-(N-(2-hydroxyethyl)aminosulfonyl)phenyl)-4-oxo-1,4-dihydro-1,8-naphthyridine-3-carboxylic acid]
MIC (A. baumannii ATCC 17978): 0.1 to 1 µg/mL (≈ 0.223 to 2.23 µM)
MIC (E. coli ATCC 25922; [10]): ≤ 0.1 µg/mL
MIC (E. feacium ATCC 700221; Table 1): 1 to 8 µg/mL (≈ 2.23 to 17.9 µM)
MIC (P. aeruginosa ATCC 27853): 0.1 to 1 µg/mL (≈ 0.223 to 2.23 µM)
MIC (S. aureus ATCC 43300; [11]): ≤ 0.1 µg/mL

CCCCCNS(=O)(=O)c1ccc(-c2c(F)cc3c(=O)c(C(=O)O)cn(C4CC4)c3c2Cl)cn1 [Example 20, 8-chloro-1-cyclopropyl-6-fluoro-4-oxo-7-(6-(N-pentylaminosulfonyl)pyridine-3-yl)-1,4-dihydroquinolin-3-carboxylic acid]
MIC (E. feacium ATCC 700221; Table 1): > 8 µg/mL
MIC (S. aureus ATCC 43300; [11]): ≤ 0.1 µg/mL

O=C(O)c1cn(C2CC2)c2c(Cl)c(-c3ccc(S(=O)(=O)NCCCC(F)(F)F)nc3)c(F)cc2c1=O [Example 34, 8-chloro-1-cyclopropyl-6-fluoro-4-oxo-7-(6-(N-(4,4,4-trifluorobutyl)sulfamoyl)pyridin-3-yl)-1,4-dihydroquinolin-3-carboxylic acid]
initial MIC compared with marketed drugs ([1]; start of resistance test, S. aureus ATCC43300): superior to the marketed drugs ciprofloxacin and vancomycin
pIC50 [3]: 5.00 to 6.00
pIC50 [4]: 5.00 to 6.00
pIC50 [5]: 5.00 to 6.00
pIC50 [6]: 5.00 to 6.00
pIC50 [7]: 5.00 to 6.00
pIC50 [8]: 5.00 to 6.00
number of colonies of liver and kidney ([2]; 1 mg/kg oral gavage): significant statistical difference from the control group
number of colonies of liver and kidney ([2]; 4 mg/kg oral gavage): good antibacterial effect
antibacterial effect in the liver and kidney (number of colonies of organs) ([2]; compared with the positive drug ciprofloxacin): very significant antibacterial effect

O=C(O)c1cn(C2CC2)c2cc(N3CCNCC3)c(F)cc2c1=O [Reference compound 2 (Ciprofloxacin), reference compound]
pIC50 [3]: < 4.00
pIC50 [4]: < 4.00
pIC50 [5]: < 4.00
pIC50 [6]: < 4.00

Cc1c(-c2cnc(N)nc2)c(F)cc2c(=O)c(C(=O)O)cn(C3CC3)c12 [compound 1, reference compound]
pIC50 [9]: ≤ 4.40
